Assay results taken from ChEMBL document CHEMBL1201862, “PubChem BioAssay data set” (2004).
One block for each compound: values may come before it. Active and inactive are the calls of the source.

Assays:
[1] = target: 1-phosphatidylinositol 4,5-bisphosphate phosphodiesterase gamma-1 (Homo sapiens, UniProt P19174); experiment: Counterscreen for inhibitors of phospholipase C isozymes (PLC-B3): Fluorescence-based biochemical high throughput dose response assay to identify inhibitors of phospholipase C isozymes (PLC-gamma1).
Sequence of 1-phosphatidylinositol 4,5-bisphosphate phosphodiesterase gamma-1 (P19174 whole entry): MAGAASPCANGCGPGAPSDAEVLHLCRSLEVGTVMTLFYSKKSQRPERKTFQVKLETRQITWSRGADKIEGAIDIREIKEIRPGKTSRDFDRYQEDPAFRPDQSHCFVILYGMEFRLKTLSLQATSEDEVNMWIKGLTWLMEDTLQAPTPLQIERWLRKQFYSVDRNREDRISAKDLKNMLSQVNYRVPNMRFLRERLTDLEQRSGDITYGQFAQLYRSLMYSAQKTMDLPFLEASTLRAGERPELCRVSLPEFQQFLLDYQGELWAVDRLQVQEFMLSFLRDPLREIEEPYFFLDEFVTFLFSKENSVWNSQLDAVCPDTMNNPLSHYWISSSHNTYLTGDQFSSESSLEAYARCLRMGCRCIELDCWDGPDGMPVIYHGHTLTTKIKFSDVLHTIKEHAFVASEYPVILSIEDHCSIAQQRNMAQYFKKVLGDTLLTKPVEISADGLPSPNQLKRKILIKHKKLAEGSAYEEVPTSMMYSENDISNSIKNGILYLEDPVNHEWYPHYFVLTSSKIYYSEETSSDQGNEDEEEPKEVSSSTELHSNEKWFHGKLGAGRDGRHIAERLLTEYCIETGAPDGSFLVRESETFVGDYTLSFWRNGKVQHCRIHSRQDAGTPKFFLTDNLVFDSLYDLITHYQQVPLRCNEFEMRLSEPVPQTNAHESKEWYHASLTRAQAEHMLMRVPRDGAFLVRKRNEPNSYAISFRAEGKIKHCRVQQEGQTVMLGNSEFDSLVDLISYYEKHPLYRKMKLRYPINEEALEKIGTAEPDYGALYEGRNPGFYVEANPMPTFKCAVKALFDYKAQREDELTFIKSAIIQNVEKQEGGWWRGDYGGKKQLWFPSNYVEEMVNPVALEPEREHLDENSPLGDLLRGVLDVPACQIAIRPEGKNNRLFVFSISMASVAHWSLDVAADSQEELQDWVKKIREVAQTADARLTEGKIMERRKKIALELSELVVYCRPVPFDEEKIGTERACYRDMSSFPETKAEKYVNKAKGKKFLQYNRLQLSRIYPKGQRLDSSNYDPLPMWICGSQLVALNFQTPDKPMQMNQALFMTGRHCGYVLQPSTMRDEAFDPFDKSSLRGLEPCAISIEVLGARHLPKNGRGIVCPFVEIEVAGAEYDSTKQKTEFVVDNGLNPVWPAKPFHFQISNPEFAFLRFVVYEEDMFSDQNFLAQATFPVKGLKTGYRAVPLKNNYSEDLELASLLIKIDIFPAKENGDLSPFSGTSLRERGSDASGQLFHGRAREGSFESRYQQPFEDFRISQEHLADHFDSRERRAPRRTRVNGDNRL

[2] = target: 1-phosphatidylinositol 4,5-bisphosphate phosphodiesterase beta-3 (Homo sapiens, UniProt Q01970); experiment: Fluorescence-based biochemical high throughput dose response assay to identify inhibitors of phospholipase C isozymes (PLC-B3).
Sequence of 1-phosphatidylinositol 4,5-bisphosphate phosphodiesterase beta-3 (Q01970 whole entry): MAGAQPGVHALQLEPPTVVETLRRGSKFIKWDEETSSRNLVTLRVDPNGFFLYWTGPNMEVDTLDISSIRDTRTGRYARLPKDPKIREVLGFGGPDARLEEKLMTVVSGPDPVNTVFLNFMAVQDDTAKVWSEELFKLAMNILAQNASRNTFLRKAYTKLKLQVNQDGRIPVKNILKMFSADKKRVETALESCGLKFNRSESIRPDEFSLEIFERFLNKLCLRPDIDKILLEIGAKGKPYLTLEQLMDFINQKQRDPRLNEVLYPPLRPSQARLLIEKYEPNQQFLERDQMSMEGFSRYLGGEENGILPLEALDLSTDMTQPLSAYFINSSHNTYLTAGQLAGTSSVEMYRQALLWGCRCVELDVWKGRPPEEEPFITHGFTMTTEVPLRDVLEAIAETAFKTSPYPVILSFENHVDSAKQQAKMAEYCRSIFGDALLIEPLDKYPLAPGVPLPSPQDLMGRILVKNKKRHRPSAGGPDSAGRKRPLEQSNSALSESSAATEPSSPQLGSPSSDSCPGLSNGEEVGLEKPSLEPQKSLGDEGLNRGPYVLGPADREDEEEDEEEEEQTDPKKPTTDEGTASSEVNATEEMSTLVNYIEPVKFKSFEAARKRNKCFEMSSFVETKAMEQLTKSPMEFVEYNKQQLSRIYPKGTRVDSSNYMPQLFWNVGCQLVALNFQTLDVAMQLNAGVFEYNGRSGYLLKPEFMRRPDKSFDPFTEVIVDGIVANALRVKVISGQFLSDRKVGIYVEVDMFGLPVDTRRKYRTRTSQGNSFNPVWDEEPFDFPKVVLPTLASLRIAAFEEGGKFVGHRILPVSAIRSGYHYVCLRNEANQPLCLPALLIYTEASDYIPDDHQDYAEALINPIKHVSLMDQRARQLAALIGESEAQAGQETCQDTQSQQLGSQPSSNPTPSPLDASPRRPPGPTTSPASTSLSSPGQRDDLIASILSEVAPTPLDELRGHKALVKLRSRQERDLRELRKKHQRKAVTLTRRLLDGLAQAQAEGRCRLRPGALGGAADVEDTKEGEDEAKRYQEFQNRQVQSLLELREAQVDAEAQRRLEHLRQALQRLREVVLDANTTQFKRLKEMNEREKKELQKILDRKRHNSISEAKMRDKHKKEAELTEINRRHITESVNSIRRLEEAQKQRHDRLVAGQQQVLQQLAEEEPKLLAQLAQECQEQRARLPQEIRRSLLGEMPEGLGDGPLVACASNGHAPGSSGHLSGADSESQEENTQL

cells [3] = experiment: cells
HEK293 [4] = experiment: NOD2 signaling inhibitors in MDP-stimulated cells, cell-based, uHTS, luminescence (AID 2001); type: functional; details: Homo sapiens
HEK293 [5] = experiment: cells; details: Homo sapiens
[6] = control 3'UTR Renilla luciferase suppression, dose response, counter-screen for Shn3 inhibitor project, cell-based, Clone20-Shn3RL, cherry-picked (AID 624133); type: functional
[7] = reduction of Shn3 3'UTR firefly luciferase signal, dose response, Schnurri-3 inhibitor project, cell-based, Clone20 osteoblasts, cherry-pick, set 2 (AID 720490); type: functional;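 further: actives lower the luminescence signal as inhibitors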
[8] = Shn3 3'UTR reporter inhibitors, dose response, cell-based, Clone20 osteoblasts, firefly luciferase, cherry-picked (AID 624132); type: functional;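 further: firefly luciferase luminescence from reporter carrying the Shn3 3'UTR in osteoblasts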
HEK293 [9] = experiment: NOD1 signaling inhibitors, primary screen, cell-based, luminescence, uHTS (AID 1578); type: functional; details: Homo sapiens
[10] = HepG2 cell cytotoxicity, dose response, cytotoxicity control for Shn3 inhibitor project, CellTiter-Glo, cherry-picked (AID 624134); type: functional, cell-based
HEK293 [11] = experiment: cells; type: functional, cell-based; details: Homo sapiens
HEK293 [12] = experiment: cells; type: functional, cell-based; details: Homo sapiens; remark: listed apart in the source
[13] = target: T1, Nucleotide-binding oligomerization domain-containing protein 1 (Homo sapiens, UniProt Q9Y239); experiment: NOD1 signaling inhibitors, SAR follow-up, revised (AID 2333); type: functional
T1 sequence (Q9Y239 whole entry): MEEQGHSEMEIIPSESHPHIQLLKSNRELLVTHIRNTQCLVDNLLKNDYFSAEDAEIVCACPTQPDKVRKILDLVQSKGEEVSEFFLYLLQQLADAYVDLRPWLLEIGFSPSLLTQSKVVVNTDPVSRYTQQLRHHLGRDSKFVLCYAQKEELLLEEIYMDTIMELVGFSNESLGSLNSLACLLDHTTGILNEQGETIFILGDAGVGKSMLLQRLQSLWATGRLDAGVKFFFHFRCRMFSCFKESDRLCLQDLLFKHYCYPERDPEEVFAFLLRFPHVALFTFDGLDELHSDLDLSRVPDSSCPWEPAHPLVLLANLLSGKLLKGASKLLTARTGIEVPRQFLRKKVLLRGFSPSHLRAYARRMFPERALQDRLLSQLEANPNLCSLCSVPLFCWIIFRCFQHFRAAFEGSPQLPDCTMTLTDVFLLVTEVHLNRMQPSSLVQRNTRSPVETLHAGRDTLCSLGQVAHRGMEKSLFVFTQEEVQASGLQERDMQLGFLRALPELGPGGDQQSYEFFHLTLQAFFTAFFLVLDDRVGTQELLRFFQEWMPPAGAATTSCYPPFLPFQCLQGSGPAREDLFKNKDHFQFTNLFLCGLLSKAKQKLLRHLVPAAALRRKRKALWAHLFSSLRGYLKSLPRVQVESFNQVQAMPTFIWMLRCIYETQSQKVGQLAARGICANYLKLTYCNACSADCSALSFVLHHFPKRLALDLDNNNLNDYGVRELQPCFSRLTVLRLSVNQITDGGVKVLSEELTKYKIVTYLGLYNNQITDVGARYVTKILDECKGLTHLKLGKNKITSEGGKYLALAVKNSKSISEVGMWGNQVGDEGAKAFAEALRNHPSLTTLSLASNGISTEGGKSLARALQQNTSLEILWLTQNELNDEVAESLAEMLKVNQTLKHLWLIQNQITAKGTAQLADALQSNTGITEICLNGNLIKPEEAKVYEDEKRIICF

Tumor necrosis factor = Tumor necrosis factor (Homo sapiens, UniProt P01375); experiment: TNFa-triggered NF-kB activation inhibitors, SAR follow-up, cell-based, revised (AID 2337); type: functional
[14] = cytotoxicity toward HCT116 cells – cell-based, CellTiter-Glo luminescence, IC50, dose response (AID 1117332); type: functional; details: HCT-116
[15] = CellTiter-Glo luminescent dose response of DLD-1 viability loss (AID 1117352); type: functional
[16] = RKO cell viability reduction, dose response, CellTiter-Glo luminescence (AID 1117322); type: functional
[17] = Concentration-dependent survival of SW480 colon cancer line, luminescence detection with CellTiter-Glo, half-maximal inhibitory concentration (AID 1117338); type: functional
[18] = cytotoxicity toward HT-29 cells – cell-based, CellTiter-Glo luminescence, IC50, dose response (AID 1117330); type: functional
[19] = HCT116 cell viability decrease, GSK3B pretreatment – CellTiter-Glo, IC50, dose response (AID 1117339); type: functional; details: HCT-116
[20] = cytotoxicity toward Colo320 cells – cell-based, CellTiter-Glo luminescence, IC50, dose response (AID 1117334); type: functional; details: COLO 320
[21] = HeLa 4N DNA content increase, dose response, cell-based, IC50 (AID 1117351); type: functional
[22] = SNU-C1 cell viability reduction, dose response, CellTiter-Glo luminescence (AID 1117323); type: functional, cell-based
[23] = HeLa 2N DNA content increase, dose response, cell-based, IC50 (AID 1117349); type: functional
[24] = ADAM10 inhibitors, peptide cleavage, dose response, biochemical, QFRET (AID 743254);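 further: ADAM10 enzyme with the DM2 quenched FRET peptide as substrate; EDANS fluorescence gain as the protease cuts the substrate; inhibitor potency against ADAM10 proteolytic activity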
[25] = Luminescence Cell-Based Dose Retest to Confirm Inhibitors of Cancer Stem Cells. [Related pubchem assays (depositor defined):AID2717, AID2721]; type: functional; details: Homo sapiens
[26] = target: Disintegrin and metalloproteinase domain-containing protein 17 (Homo sapiens, UniProt P78536); experiment: ADAM17 protease inhibitors, dose response, counter-screen for ADAM10 exosite inhibitor project, biochemical, quenched FRET substrate (AID 743253)
Fatty acid synthase [27] = target: T2, Fatty acid synthase (Homo sapiens, UniProt P49327); experiment: FAS thioesterase domain inhibitors, dose response, biochemical, endpoint fluorescence intensity, uHTS hits (AID 624327); type: functional;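 further: fluorescence from hydrolysis of an O-methyl fluorescein acyl ester substrate by the enzyme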
T2 sequence (P49327 whole entry, the tested form may be a part): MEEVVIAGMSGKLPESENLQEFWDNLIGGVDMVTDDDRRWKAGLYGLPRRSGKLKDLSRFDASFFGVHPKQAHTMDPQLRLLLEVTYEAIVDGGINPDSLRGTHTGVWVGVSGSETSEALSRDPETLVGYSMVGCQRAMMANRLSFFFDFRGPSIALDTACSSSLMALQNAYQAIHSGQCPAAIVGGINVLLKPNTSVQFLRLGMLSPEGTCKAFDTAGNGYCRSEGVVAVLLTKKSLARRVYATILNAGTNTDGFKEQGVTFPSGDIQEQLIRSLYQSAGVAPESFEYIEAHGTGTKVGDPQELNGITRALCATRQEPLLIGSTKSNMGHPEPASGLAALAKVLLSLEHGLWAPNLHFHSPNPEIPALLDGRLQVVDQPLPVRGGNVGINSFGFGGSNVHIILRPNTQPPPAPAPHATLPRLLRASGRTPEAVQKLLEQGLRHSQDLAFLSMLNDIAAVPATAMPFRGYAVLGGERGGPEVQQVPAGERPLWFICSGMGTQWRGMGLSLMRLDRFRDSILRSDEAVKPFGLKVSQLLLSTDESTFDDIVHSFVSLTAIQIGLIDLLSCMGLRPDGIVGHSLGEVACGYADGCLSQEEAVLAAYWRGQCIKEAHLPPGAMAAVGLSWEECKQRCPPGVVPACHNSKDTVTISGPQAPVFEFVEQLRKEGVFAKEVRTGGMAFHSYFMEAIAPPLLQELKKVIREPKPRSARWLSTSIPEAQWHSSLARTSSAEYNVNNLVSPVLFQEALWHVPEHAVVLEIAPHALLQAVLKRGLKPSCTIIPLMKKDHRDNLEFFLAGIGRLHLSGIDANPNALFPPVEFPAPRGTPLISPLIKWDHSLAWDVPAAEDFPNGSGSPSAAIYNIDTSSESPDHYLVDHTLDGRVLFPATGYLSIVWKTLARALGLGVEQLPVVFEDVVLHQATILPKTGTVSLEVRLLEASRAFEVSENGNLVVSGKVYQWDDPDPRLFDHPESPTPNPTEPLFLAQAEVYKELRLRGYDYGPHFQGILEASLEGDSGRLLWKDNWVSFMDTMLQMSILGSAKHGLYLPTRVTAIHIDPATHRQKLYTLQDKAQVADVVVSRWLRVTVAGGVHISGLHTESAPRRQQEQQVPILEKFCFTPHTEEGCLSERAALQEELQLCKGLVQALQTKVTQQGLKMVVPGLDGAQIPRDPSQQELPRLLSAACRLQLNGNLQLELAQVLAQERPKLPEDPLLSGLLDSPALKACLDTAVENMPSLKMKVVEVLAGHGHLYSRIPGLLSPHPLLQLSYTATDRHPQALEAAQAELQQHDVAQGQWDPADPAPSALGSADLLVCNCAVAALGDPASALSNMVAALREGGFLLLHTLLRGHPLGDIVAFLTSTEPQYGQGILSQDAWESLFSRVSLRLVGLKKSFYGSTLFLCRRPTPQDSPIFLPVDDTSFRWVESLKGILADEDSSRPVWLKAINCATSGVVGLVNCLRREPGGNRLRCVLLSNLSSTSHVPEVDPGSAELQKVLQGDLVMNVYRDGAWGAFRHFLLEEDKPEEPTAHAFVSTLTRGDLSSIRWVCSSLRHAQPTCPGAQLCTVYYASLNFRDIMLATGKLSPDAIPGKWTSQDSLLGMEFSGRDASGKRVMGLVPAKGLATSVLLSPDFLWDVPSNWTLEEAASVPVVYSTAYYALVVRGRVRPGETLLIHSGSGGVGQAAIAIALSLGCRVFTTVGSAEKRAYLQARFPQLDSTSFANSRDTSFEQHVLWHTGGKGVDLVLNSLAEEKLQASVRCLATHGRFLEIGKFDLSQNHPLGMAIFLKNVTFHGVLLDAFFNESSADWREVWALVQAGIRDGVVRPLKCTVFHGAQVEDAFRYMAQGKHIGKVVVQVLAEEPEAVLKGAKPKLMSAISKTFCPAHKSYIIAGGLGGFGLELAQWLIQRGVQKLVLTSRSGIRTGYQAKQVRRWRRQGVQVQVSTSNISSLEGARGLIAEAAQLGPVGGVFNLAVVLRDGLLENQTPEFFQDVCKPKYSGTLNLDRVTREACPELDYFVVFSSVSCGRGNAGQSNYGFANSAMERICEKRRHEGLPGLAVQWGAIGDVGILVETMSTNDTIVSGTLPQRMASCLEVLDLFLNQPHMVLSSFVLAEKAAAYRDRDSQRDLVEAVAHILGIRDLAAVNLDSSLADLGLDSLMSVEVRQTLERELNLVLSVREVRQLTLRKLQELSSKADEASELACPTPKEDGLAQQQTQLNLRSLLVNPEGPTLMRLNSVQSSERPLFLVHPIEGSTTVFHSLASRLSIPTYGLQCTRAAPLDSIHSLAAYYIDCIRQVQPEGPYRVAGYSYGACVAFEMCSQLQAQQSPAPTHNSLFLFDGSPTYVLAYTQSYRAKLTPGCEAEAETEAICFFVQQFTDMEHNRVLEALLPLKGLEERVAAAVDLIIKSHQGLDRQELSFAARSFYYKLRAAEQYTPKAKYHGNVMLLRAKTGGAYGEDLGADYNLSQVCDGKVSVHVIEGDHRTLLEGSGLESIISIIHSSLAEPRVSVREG

Fatty acid synthase [28] = target: T2, Fatty acid synthase; experiment: FAS thioesterase domain inhibitors, SAR follow-up, biochemical, endpoint fluorescence intensity, powder samples (AID 652164); type: functional
Fatty acid synthase [29] = target: T2, Fatty acid synthase; experiment: FAS thioesterase domain inhibitors, dose response, biochemical, kinetic fluorescence intensity (AID 624326); type: functional;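 further: rate of fluorescence rise from hydrolysis of a fluorogenic O-methyl fluorescein ester substrate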
fMet-Leu-Phe receptor = fMet-Leu-Phe receptor (Homo sapiens, UniProt P21462); experiment: FPR ligands, dose response (AID 519); type: functional
[30] = IGROV1 ovarian cancer cell cytotoxicity, dose response, PAX8 inhibitor project, plate reader, dry powder samples (AID 743043); type: functional, cell-based; details: IGROV-1
[31] = NIH:OVCAR-3 ovarian cancer cell cytotoxicity, dose response, PAX8 inhibitor project, plate reader, dry powder samples (AID 743044); type: functional, cell-based
[32] = IOSE-T80 ovarian epithelial cell cytotoxicity, dose response, cytotoxicity control for PAX8 inhibitor project, plate reader, dry powder samples (AID 743045); type: functional, cell-based
[33] = A2780 ovarian cancer cell cytotoxicity, dose response, cytotoxicity control, plate reader, dry powder samples (AID 743046); type: functional, cell-based
[34] = cytotoxicity in OV-90 ovarian cancer cells, dose response, PAX8 inhibitor project, cell-based, plate reader, dry powder, SA8 (AID 743149); type: functional
[35] = cytotoxicity in COV434 cells, dose response, cytotoxicity control for PAX8 inhibitor project, cell-based, plate reader, dry powder, SA7 (AID 743145); type: functional
[36] = cytotoxicity in OVCAR4 cells, dose response, cytotoxicity control for PAX8 inhibitor project, cell-based, plate reader, dry powder, SA11 (AID 743150); type: functional; details: OVCAR-4
[37] = cytotoxicity in COV362 ovarian cancer cells, dose response, cytotoxicity control for PAX8 inhibitor project, cell-based, plate reader, dry powder, SA12 (AID 743144); type: functional
[38] = cytotoxicity dependent on PAX8, dose response, cell-based, plate reader, dry powder (AID 743049); type: functional
[39] = PAX2 cell-based inhibition, dose response, selectivity assay for PAX8 inhibitor project, plate reader, dry powder samples (AID 743048); type: functional;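 further: HEK293 cells carrying a WT1 promoter luciferase reporter driven by expressed Pax2; potency is for inhibition of Pax2 driven reporter signal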
cells [40] = experiment: cells; remark: listed apart in the source
[41] = target: T3, Oxysterols receptor LXR-beta (Homo sapiens, UniProt P55055); type: functional, cell-based;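 further: Cell-based luminescence dose-response assay of agonist activity at LXR, run as a confirmatory counterscreen to a daf-12 agonist screen; HEK293 cells with Gal4-LXR fusion and GAL4-driven luciferase reporter; agonist potency from rising luciferase signal of a Gal4-LXR reporter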
T3 sequence (P55055 whole entry): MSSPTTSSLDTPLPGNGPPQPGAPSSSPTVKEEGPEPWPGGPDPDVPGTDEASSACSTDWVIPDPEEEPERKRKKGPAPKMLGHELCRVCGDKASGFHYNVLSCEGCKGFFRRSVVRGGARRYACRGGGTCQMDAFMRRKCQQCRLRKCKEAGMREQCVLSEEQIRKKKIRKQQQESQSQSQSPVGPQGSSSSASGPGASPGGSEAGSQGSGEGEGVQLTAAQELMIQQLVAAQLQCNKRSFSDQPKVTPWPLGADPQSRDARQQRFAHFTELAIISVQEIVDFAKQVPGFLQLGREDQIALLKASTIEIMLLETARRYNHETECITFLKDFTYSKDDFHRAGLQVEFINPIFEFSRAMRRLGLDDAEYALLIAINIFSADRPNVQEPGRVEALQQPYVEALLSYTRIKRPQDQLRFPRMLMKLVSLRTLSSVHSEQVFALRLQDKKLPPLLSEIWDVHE

IC50 [1]: > 122 µM (inactive)
IC50 [2]: > 122 µM (inactive)
Compound: CCCCN=C(S)NNC(=O)c1csc(CC)c1

Compound: COc1ccc(C2C3=C(CCCC3=O)N(CC(=O)O)C3=C2C(=O)CCC3)cc1
AC50 (cells [3]): 5.91 µM (active)

Compound: CC1Cc2cc(S(=O)(=O)N3CCN(c4ccc(Cl)cc4)CC3)ccc2N1C(=O)C1CC1 (stereo not drawn)
IC50 (HEK293 [4]): 4.43 µM (active)
IC50 (HEK293 [5]): > 20 µM (inactive)
AC50 [6]: 25.4 µM (active)
AC50 [7]: 5 µM (active)
AC50 [8]: 4.26 µM (active)
EC50 (HEK293 [9]): > 20 µM (inactive)
AC50 [10]: 64.6 µM (active)
IC50 (HEK293 [11]): > 20 µM (inactive)
IC50 (HEK293 [12]): 2.22 µM (active)
IC50 [13]: 5.6 µM (active)
IC50 (Tumor necrosis factor): 9.52 µM (active)

Compound: Cc1nc2ccc(CN(C)c3ccc(C(=O)N[C@@H](CCC(=O)O)C(=O)O)s3)cc2c(=O)[nH]1
IC50 [14]: 0.00424 µM (active)
IC50 [15]: > 20 µM (inactive)
IC50 [16]: 0.00288 µM (active)
IC50 [17]: 0.001 µM (active)
IC50 [18]: > 20 µM (inactive)
IC50 [19]: 0.0023 µM (active)
IC50 [20]: > 20 µM (inactive)
IC50 [21]: > 10 µM (inactive)
IC50 [22]: > 20 µM (inactive)
IC50 [23]: > 10 µM (inactive)

Compound: Cc1ccc(S(=O)(=O)Nc2ccc(-c3csc(-c4ccccc4)n3)cc2)cc1
IC50 [24]: > 69.5 µM (inactive)
AC50 [25]: 3.5 µM (active)
IC50 [26]: > 69.5 µM (inactive)

IC50 (Fatty acid synthase [27]): 0.614 µM (active)
IC50 (Fatty acid synthase [28]): 0.874 µM (active)
IC50 (Fatty acid synthase [29]): 0.53 µM (active)
Compound: CC(C)C(=O)Nc1nc(-c2ccc(S(=O)(=O)N3CCOCC3)cc2)cs1

Ki (fMet-Leu-Phe receptor): > 66.7 µM (inactive)
Compound: CCOc1cc(C2C(C(=O)c3ccco3)=C(O)C(=O)N2CCc2ccccc2)ccc1O (stereo not drawn)

Compound: COc1ccc(OC)c2sc(N(CCCN(C)C)C(=O)CCS(=O)(=O)c3ccccc3)nc12
AC50 [30]: 25.5 µM (active)
AC50 [31]: 7.2 µM (active)
AC50 [32]: 14.5 µM (active)
AC50 [33]: 40 µM (active)
AC50 [34]: 17.3 µM (active)
AC50 [35]: 5.66 µM (active)
AC50 [36]: 22.8 µM (active)
AC50 [37]: 12 µM (active)
AC50 [38]: 13.2 µM (active)
AC50 [39]: 56.3 µM (active)

Compound: N#Cc1ccsc1NC(=O)CSc1nncs1
EC50 (cells [40]): > 67.5 µM (inactive)
EC50 [41]: > 67.5 µM (inactive)
